Test results reported in PubChem BioAssay AID2060507 (Molecular Pharmacology Branch, DTP, NCI, 2025).

Test system: 519858-162-T-J1-PDC complex spheroid viability
Test: Anticancer human tumor 519858-162-T-J1-PDC patient-derived colon adenocarcinoma cell line growth inhibition [GQUAD]
Details: for IC50: curve of first compound; for viability, T/C: stronger effect = lower value
Summary of the method: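 Multi-cell-type spheroids of tumor cells with HUVEC and mesenchymal stem cells, treated with drug combinations. Concentrations descend in half-log steps from near clinical Cmax, or from 10 microM where Cmax is unknown; viability read-out.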

[1] = second compound 0.0316 µM, first compound 0.0316 µM
[2] = second compound 0.0316 µM, first compound 0.1 µM
[3] = second compound 0.0316 µM, first compound 0.316 µM
[4] = second compound 0.0316 µM, first compound 1 µM
[5] = second compound 0.0316 µM, first compound 3.16 µM
[6] = second compound 0.0316 µM, first compound 10 µM
[7] = second compound 0.1 µM, first compound 0.0316 µM
[8] = second compound 0.1 µM, first compound 0.1 µM
[9] = second compound 0.1 µM, first compound 0.316 µM
[10] = second compound 0.1 µM, first compound 1 µM
[11] = second compound 0.1 µM, first compound 3.16 µM
[12] = second compound 0.1 µM, first compound 10 µM
[13] = second compound 0.316 µM, first compound 0.0316 µM
[14] = second compound 0.316 µM, first compound 0.1 µM
[15] = second compound 0.316 µM, first compound 0.316 µM
[16] = second compound 0.316 µM, first compound 1 µM
[17] = second compound 0.316 µM, first compound 3.16 µM
[18] = second compound 0.316 µM, first compound 10 µM
[19] = second compound 1 µM, first compound 0.0316 µM
[20] = second compound 1 µM, first compound 0.1 µM
[21] = second compound 1 µM, first compound 0.316 µM
[22] = second compound 1 µM, first compound 1 µM
[23] = second compound 1 µM, first compound 3.16 µM
[24] = second compound 1 µM, first compound 10 µM
[25] = second compound 3.16 µM, first compound 0.0316 µM
[26] = second compound 3.16 µM, first compound 0.1 µM
[27] = second compound 3.16 µM, first compound 0.316 µM
[28] = second compound 3.16 µM, first compound 1 µM
[29] = second compound 3.16 µM, first compound 3.16 µM
[30] = second compound 3.16 µM, first compound 10 µM
[31] = second compound 10 µM, first compound 0.0316 µM
[32] = second compound 10 µM, first compound 0.1 µM
[33] = second compound 10 µM, first compound 0.316 µM
[34] = second compound 10 µM, first compound 1 µM
[35] = second compound 10 µM, first compound 3.16 µM
[36] = second compound 10 µM, first compound 10 µM
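Note: spheroids exposed to compounds for 7 days.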
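Throughout, for viability, T/C: 100% = DMSO vehicle control viability.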

## CC(C)(O)C1CCC(Nc2ccc3ncc(-c4cccc(C(F)(F)F)c4)n3n2)CC1 (stereo unspecified) + Cc1cnc(CNC(=O)c2c(=O)c3ccc(N4CCCN(C)CC4)nc3n3c2sc2ccccc23)cn1
Second compound 0.0316 µM
  IC50: 2150 nM
Second compound 0.1 µM
  IC50: 1980 nM
Second compound 0.316 µM
  IC50: 1450 nM
Second compound 1 µM
  IC50: 262 nM
Second compound 3.16 µM
  IC50: < 31.6 nM
Second compound 10 µM
  IC50: 31.6 nM
[1]
  viability, T/C: 101%
[2]
  viability, T/C: 111%
[3]
  viability, T/C: 93.2%
[4]
  viability, T/C: 103%
[5]
  viability, T/C: 11%
[6]
  viability, T/C: 36.5%
[7]
  viability, T/C: 87.6%
[8]
  viability, T/C: 95.5%
[9]
  viability, T/C: 107%
[10]
  viability, T/C: 105%
[11]
  viability, T/C: 8.82%
[12]
  viability, T/C: 24.6%
[13]
  viability, T/C: 107%
[14]
  viability, T/C: 72.4%
[15]
  viability, T/C: 63.5%
[16]
  viability, T/C: 80.9%
[17]
  viability, T/C: 20.8%
[18]
  viability, T/C: 31.2%
[19]
  viability, T/C: 71.1%
[20]
  viability, T/C: 68.8%
[21]
  viability, T/C: 42.1%
[22]
  viability, T/C: 48.5%
[23]
  viability, T/C: 42.4%
[24]
  viability, T/C: 52.3%
[25]
  viability, T/C: 37.5%
[26]
  viability, T/C: 43.1%
[27]
  viability, T/C: 50.8%
[28]
  viability, T/C: 47.1%
[29]
  viability, T/C: 31.4%
[30]
  viability, T/C: 20.8%
[31]
  viability, T/C: 36.4%
[32]
  viability, T/C: 45.3%
[33]
  viability, T/C: 52.3%
[34]
  viability, T/C: 64.7%
[35]
  viability, T/C: 9.24%
[36]
  viability, T/C: 0.75%

## CC[C@@]1(O)C(=O)OCc2c1cc1n(c2=O)Cc2cc3c(CN(C)C)c(O)ccc3nc2-1 + Cc1cnc(CNC(=O)c2c(=O)c3ccc(N4CCCN(C)CC4)nc3n3c2sc2ccccc23)cn1
Second compound 0.0316 µM
  IC50: > 316 nM
Second compound 0.1 µM
  IC50: > 316 nM
Second compound 0.316 µM
  IC50: > 316 nM
Second compound 1 µM
  IC50: > 316 nM
Second compound 3.16 µM
  IC50: > 316 nM
Second compound 10 µM
  IC50: < 0.999 nM
Second compound 0.0316 µM, first compound 0.000999 µM
  viability, T/C: 88%
Second compound 0.0316 µM, first compound 0.00316 µM
  viability, T/C: 91%
Second compound 0.0316 µM, first compound 0.00999 µM
  viability, T/C: 89.7%
[1]
  viability, T/C: 67.7%
Second compound 0.0316 µM, first compound 0.0999 µM
  viability, T/C: 78%
[3]
  viability, T/C: 83.7%
Second compound 0.1 µM, first compound 0.000999 µM
  viability, T/C: 93.8%
Second compound 0.1 µM, first compound 0.00316 µM
  viability, T/C: 89.3%
Second compound 0.1 µM, first compound 0.00999 µM
  viability, T/C: 84.5%
[7]
  viability, T/C: 79.5%
Second compound 0.1 µM, first compound 0.0999 µM
  viability, T/C: 70.9%
[9]
  viability, T/C: 59.4%
Second compound 0.316 µM, first compound 0.000999 µM
  viability, T/C: 90.1%
Second compound 0.316 µM, first compound 0.00316 µM
  viability, T/C: 86.8%
Second compound 0.316 µM, first compound 0.00999 µM
  viability, T/C: 96.5%
[13]
  viability, T/C: 78.8%
Second compound 0.316 µM, first compound 0.0999 µM
  viability, T/C: 80.7%
[15]
  viability, T/C: 74.6%
Second compound 1 µM, first compound 0.000999 µM
  viability, T/C: 66.1%
Second compound 1 µM, first compound 0.00316 µM
  viability, T/C: 58.9%
Second compound 1 µM, first compound 0.00999 µM
  viability, T/C: 72.8%
[19]
  viability, T/C: 49.7%
Second compound 1 µM, first compound 0.0999 µM
  viability, T/C: 59%
[21]
  viability, T/C: 62.9%
Second compound 3.16 µM, first compound 0.000999 µM
  viability, T/C: 67.2%
Second compound 3.16 µM, first compound 0.00316 µM
  viability, T/C: 43.9%
Second compound 3.16 µM, first compound 0.00999 µM
  viability, T/C: 75.9%
[25]
  viability, T/C: 43%
Second compound 3.16 µM, first compound 0.0999 µM
  viability, T/C: 38.2%
[27]
  viability, T/C: 64.4%
Second compound 10 µM, first compound 0.000999 µM
  viability, T/C: 58.5%
Second compound 10 µM, first compound 0.00316 µM
  viability, T/C: 34.9%
Second compound 10 µM, first compound 0.00999 µM
  viability, T/C: 40%
[31]
  viability, T/C: 41.2%
Second compound 10 µM, first compound 0.0999 µM
  viability, T/C: 37.8%
[33]
  viability, T/C: 37.6%

## COc1ncnc(C2CC2)c1-c1ncc2cnn(Cc3ccc(-c4nc(C(F)(F)F)cn4C(C)C)cc3)c2n1 + Cc1cnc(CNC(=O)c2c(=O)c3ccc(N4CCCN(C)CC4)nc3n3c2sc2ccccc23)cn1
Second compound 0.0316 µM
  IC50: > 10000 nM
Second compound 0.1 µM
  IC50: > 10000 nM
Second compound 0.316 µM
  IC50: 8600 nM
Second compound 1 µM
  IC50: 809 nM
Second compound 3.16 µM
  IC50: < 31.6 nM
Second compound 10 µM
  IC50: < 31.6 nM
[1]
  viability, T/C: 87.7%
[2]
  viability, T/C: 65.6%
[3]
  viability, T/C: 88.7%
[4]
  viability, T/C: 79.3%
[5]
  viability, T/C: 90.6%
[6]
  viability, T/C: 67.6%
[7]
  viability, T/C: 85.6%
[8]
  viability, T/C: 74.8%
[9]
  viability, T/C: 97.7%
[10]
  viability, T/C: 77.9%
[11]
  viability, T/C: 97.2%
[12]
  viability, T/C: 54%
[13]
  viability, T/C: 72.4%
[14]
  viability, T/C: 54.8%
[15]
  viability, T/C: 64.1%
[16]
  viability, T/C: 67.5%
[17]
  viability, T/C: 45.5%
[18]
  viability, T/C: 50.4%
[19]
  viability, T/C: 55.7%
[20]
  viability, T/C: 54.1%
[21]
  viability, T/C: 47.6%
[22]
  viability, T/C: 47.8%
[23]
  viability, T/C: 49.1%
[24]
  viability, T/C: 53.3%
[25]
  viability, T/C: 49.2%
[26]
  viability, T/C: 40.1%
[27]
  viability, T/C: 46%
[28]
  viability, T/C: 30.3%
[29]
  viability, T/C: 63.7%
[30]
  viability, T/C: 48.6%
[31]
  viability, T/C: 35.8%
[32]
  viability, T/C: 55.3%
[33]
  viability, T/C: 48.5%
[34]
  viability, T/C: 26.8%
[35]
  viability, T/C: 47.6%
[36]
  viability, T/C: 90.8%
